Results as given in article PMC6273954, “Antileishmanial Activity and Structure-Activity Relationship of Triazolic Compounds Derived from the Neolignans Grandisin, Veraguensin, and Machilin G” (Molecules, 2016).
≈ marks a conversion by molar mass, not a printed value. Like-named read-outs stand apart in the source and are kept apart here.

Legend:
J774.A1 cells = assay: Cytotoxicity assay (sulforhodamine B); type: cell-based, murine; settings: for SI (selectivity index): IC50 on mammalian cells/IC50 on intracellular amastigotes; for IC50: Mus musculus, J774.A1, murine macrophages, 48 h, sulforhodamine B; for cytotoxicity on mammalian cells: J774.A1 macrophages
Experimental: Amphotericin B (Sigma-Aldrich®) was used as the reference drug (0.025–25 µg·mL^−1). Cell growth was evaluated according to Skehan et al. using the sulforhodamine B assay. Dimethyl sulfoxide (DMSO, Vetec®, Rio de Janeiro, Brazil) was used as negative control at the concentration used to solubilize the highest concentration of compounds. IC50 was calculated by nonlinear regression curve. Selectivity index was calculated according to Medeiros et al..

[1] = system: L. (L.) amazonensis intracellular amastigotes; assay: In vitro antileishmanial activity on intracellular amastigotes in peritoneal macrophages; type: cell-based, Leishmania (Leishmania) amazonensis; parameters: key to activity class against intracellular amastigotes: active (<20 µM); moderately active (20–50 µM); potentially inactive (>50 µM); settings: for IC50: Leishmania amazonensis, Peritoneal macrophage; for concentration from which infection index was significantly decreased / effect on infection index: versus untreated cells
Experimental: In vitro antileishmanial activity was evaluated on peritoneal macrophages infected with. L. (L.) amazonensis intracellular amastigotes. Parasites (IFLA/BR/1967/PH8 strain) were routinely isolated from BALB/c mice and maintained as promastigotes at 25 °C in Schneider's Insect Medium (Sigma-Aldrich®, St. Louis, MO, USA) supplemented with 20% fetal calf serum (FCS-Cultilab® Campinas, Brazil) and 140 μg·mL^-1 gentamicin (Sigma-Aldrich®). Macrophages were obtained from peritoneal wash of BALB/c mice after euthanasia. 10 mL of RPMI 1640 (Sigma-Aldrich®) supplemented with 2% L-glutamine, 2.8% bicarbonate buffer, 100 U·mL^-1 penicillin and […] streptomycin were injected into the peritoneal cavity. After massage area, liquid was aspirated and transferred to tubes on ice. Peritoneal cells were quantified in Neubauer chamber after cellular exclusion with Trypan Blue staining (Sigma-Aldrich®). Peritoneal cells (1 × 10^5 cells/well) were added to 24-well plates containing circular coverslips. Plates were incubated for one hour at 37 °C/5% CO2 to allow cell adhesion and then 1 × 10^6 L. (L.) amazonensis promastigotes were added to each well. Plates were incubated at 35 °C/5% CO2 for four hours and then cells were treated for 24 h with synthetic compounds 4-19 (6.25-50 μg·mL^-1). Amphotericin B (Sigma-Aldrich®) was used as the reference drug (0.25 to 2 μg·mL^-1) and untreated cells were used as negative control. Coverslips were processed as described by Rizk et al.. The overall number of amastigotes was determined by counting 100 cells in six replicates. The half maximal inhibitory concentration (IC50) was calculated using a nonlinear regression curve. Infection index was obtained as described by […] et al..

[2] = system: L. amazonensis infected macrophages; assay: Nitric oxide production by infected and treated peritoneal cells (Griess); type: cell-based, BALB/c mice
Experimental: To evaluate the nitric oxide production (NO) by infected and treated peritoneal cells, 50 µL of culture supernatant from the antileishmanial assay were collected and incubated with equal volume of Griess reagent (1% sulfanilamide /0.1% naphthalene diamine in 5% phosphoric acid) for 10 min at room temperature. According to Ding et al., the absorbance was determined at 540 nm and converted to NO2^− (µM) by comparing to a standard curve of known concentrations of sodium nitrite (1–10 µM) in RPMI medium (Sigma-Aldrich®).

[3] = system: L. (L.) amazonensis promastigotes; settings: cited from earlier work
[4] = system: L. donovani promastigote forms; parameters: method as in PMID 18688887; settings: cited from earlier work
[5] = in Mus musculus, infected BALB/c peritoneal macrophages, treated 24 h, read-out: Intracellular Amastigotes IC50
[6] = classified by IC50 according to Upegui et al.
[7] = at the highest concentration(s) tested, compared to control
[8] = 24 h, classified by IC50 according to Upegui et al., read-out: activity class against intracellular amastigotes
[9] = 24 h after treatment, compared to untreated infected cells (control)
[10] = at the lowest concentrations tested, compared to control
[11] = highest reduction reached / at the highest concentration, 24 h after treatment

Row | SMILES | SI (selectivity index) (J774.A1 cells) | IC50 (J774.A1 cells) [µM] | IC50 [1, 5] [µM] | activity class against intracellular amastigotes [1, 6] | IC50 [1, 8] [µM] | nitric oxide (NO) production [2, 9] | other results
1 | C[C@@H]1[C@H](O)[C@@H](C)/C=C/C=C/C=C/C=C/C=C/C=C/C=C/[C@H](O[C@@H]2O[C@H](C)[C@@H](O)[C@H](N)[C@@H]2O)C[C@@H]2O[C@](O)(C[C@@H](O)C[C@@H](O)[C@H](O)CC[C@@H](O)C[C@@H](O)CC(=O)O[C@H]1C)C[C@H](O)[C@H]2C(=O)O [Amphotericin B, reference compound] | 3.1 | 2.2 | 0.7 | – | – | – | –
2 | COc1ccc(-c2cn(-c3ccc(OC)cc3)nn2)cc1 [Compound 4] | 66.9 | 877 | 13.1 | active | – | – | nitric oxide (NO) production [2, 7]: increase of NO production
3 | COc1ccc(-c2cn(-c3ccc(OC)c(OC)c3)nn2)cc1OC [Compound 5] | 3.6 | 76.4 | 21.3 | – | 20 to 50 | – | concentration from which infection index was significantly decreased ([1]; 24 h after treatment): 12.5 µg/mL; nitric oxide (NO) production ([2]; at 25 µg·mL−1, compared to control): lower than control
4 | COc1cc(-c2cn(-c3cc(OC)c(OC)c(OC)c3)nn2)cc(OC)c1OC [Compound 6] | >66.2 | > 623 | 9.4 | active | – | increased production of nitric oxide | concentration from which infection index was significantly decreased ([1]; 24 h after treatment): 6.25 µg/mL; reduction of infection index ([1]; at 50 µg·mL−1, 24 h after treatment): 98.6%; activity on promastigote forms [3]: inactive on promastigote forms
5 | c1cc2c(cc1-c1cn(-c3ccc4c(c3)OCO4)nn1)OCO2 [Compound 7] | 4.2 | 86.2 | 20.4 | – | 20 to 50 | – | –
6 | COc1ccc(-c2cn(-c3ccc(OC)c(OC)c3)nn2)cc1 [Compound 8] | 4.9 | 79.2 | 16 | active | – | – | –
7 | COc1ccc(-n2cc(-c3ccc(OC)c(OC)c3)nn2)cc1 [Compound 9] | 1.2 | 22.6 | 18.3 | active | – | – | –
8 | COc1ccc(-c2cn(-c3cc(OC)c(OC)c(OC)c3)nn2)cc1 [Compound 10] | 3.9 | 65.4 | 16.8 | active | – | – | –
9 | COc1ccc(-n2cc(-c3cc(OC)c(OC)c(OC)c3)nn2)cc1 [Compound 11] | 4.1 | 67.5 | 16.5 | active | – | – | nitric oxide (NO) production [2, 7]: higher than control; nitric oxide (NO) production [2, 10]: lower than untreated cells
10 | COc1ccc(-c2cn(-c3ccc4c(c3)OCO4)nn2)cc1 [Compound 12] | 6.5 | 96.5 | 14.8 | active | – | increase in NO production | nitric oxide (NO) production [2, 7]: increase of NO production
11 | COc1ccc(-n2cc(-c3ccc4c(c3)OCO4)nn2)cc1 [Compound 13] | 2.6 | 135 | 50.7 | did not show potential activity | – | increase in NO production | –
12 | COc1ccc(-c2cn(-c3cc(OC)c(OC)c(OC)c3)nn2)cc1OC [Compound 14] | 14.1 | 79.1 | 5.6 | active | – | induced nitric oxide production | cytotoxicity on mammalian cells (J774.A1 cells): low cytotoxicity on mammalian cells; effect on infection index ([1]; 24 h after treatment): reduced the infection index at all concentrations tested; reduction of infection index [1, 11]: 86.4%; nitric oxide (NO) production [2, 10]: significantly induced NO production
13 | COc1ccc(-n2cc(-c3cc(OC)c(OC)c(OC)c3)nn2)cc1OC [Compound 15] | 2.6 | 76.9 | 29.2 | – | 20 to 50 | – | –
14 | COc1ccc(-c2cn(-c3ccc4c(c3)OCO4)nn2)cc1OC [Compound 16] | >23.5 | > 768 | 32.7 | – | 20 to 50 | significantly induce NO production | –
15 | COc1ccc(-n2cc(-c3ccc4c(c3)OCO4)nn2)cc1OC [Compound 17] | 0.3 | 9.2 | 29.9 | – | 20 to 50 | – | cytotoxicity on mammalian cells (J774.A1 cells): toxic for the macrophages
16 | COc1cc(-c2cn(-c3ccc4c(c3)OCO4)nn2)cc(OC)c1OC [Compound 18] | 2.2 | 66.9 | 29.8 | – | 20 to 50 | did not induce a significant production of NO | reduction of infection index [1, 11]: 92.1%
17 | COc1cc(-n2cc(-c3ccc4c(c3)OCO4)nn2)cc(OC)c1OC [Compound 19] | 10.6 | 46.9 | 4.4 | active | – | induced nitric oxide production | cytotoxicity on mammalian cells (J774.A1 cells): low cytotoxicity on mammalian cells; effect on infection index ([1]; 24 h after treatment): significantly reduced the infection index; IC50 ([3]; read-out: IC50 against L. (L.) amazonensis promastigote forms): 7.2 µM; nitric oxide (NO) production [2, 7]: twice as high than control
18 | COc1cccc2c1C(=O)c1c(O)c3c(c(O)c1C2=O)C[C@@](O)(C(=O)CO)C[C@@H]3O[C@H]1C[C@H](N)[C@H](O)[C@H](C)O1 [Doxorubicin, reference compound] | – | 0.5 | – | – | – | – | –
19 | COc1cc([C@@H]2O[C@@H](c3cc(OC)c(OC)c(OC)c3)[C@H](C)[C@H]2C)cc(OC)c1OC [grandisin] | – | – | – | – | – | – | IC50 on L. (L.) amazonensis promastigotes [3]: 42.4 µg/mL (≈ 98 µM); IC50 ([3]; read-out: IC50 on L. (L.) amazonensis promastigotes): 98 µM
20 | COc1ccc([C@H]2O[C@@H](c3ccc(OC)c(OC)c3)[C@H](C)[C@H]2C)cc1OC [veraguensin] | – | – | – | – | – | – | IC50 [4]: 48.3 µM; activity on L. donovani promastigote forms [4]: 18 µg/mL
